Data reported in publication PMC2901233 (Nuclear medicine and biology, 2010).
Several values for one entry are separate records, joined by “and”; a condition that tells them apart may be missing. Identical values can stand only once. Entries after “also recorded” stand apart in the source; their conditions may differ.

How the values were obtained:
[1] = system: serotonin transporter
[2] = system: serotonin transporters; experiment: SPECT binding potential; format: in vivo, baboon (Papio anubis)
[3] = reversed phase HPLC analysis of components of plasma radioactivity; format: in vivo, baboon (Papio anubis)
[4] = system: 5-HT transporter; conditions: cited from earlier work
[5] = plasma protein binding by the ultrafiltration method; format: in vitro ADME, baboon (Papio anubis)
[6] = format: in vivo, baboon (Papio anubis)
[7] = system: dopamine transporter; conditions: cited from earlier work
[8] = 0.5 mg/kg IV at 8 h post-radiotracer, n=2
[9] = MRTM2 analysis, bolus only study, first animal
[10] = average of equilibrium scans prior to displacement, same animal as MRTM2
[11] = 3 min after injection, arterial plasma
[12] = 5 min after injection, arterial plasma
[13] = 10 min after injection, arterial plasma
[14] = 30 min after injection, arterial plasma
[15] = 60 min after injection, arterial plasma
[16] = 120 min after injection, arterial plasma
[17] = 180 min after injection, arterial plasma
[18] = 360 min after injection, arterial plasma

COC(=O)C(c1ccccc1)C1CCCCN1 (centres unmarked) [Methylphenidate, methylphenidate]
Percent Displacement in [123I]p ZIENT (BPND), Basal Ganglia [1, 8]: -4% | Percent Displacement in [123I]p ZIENT (BPND), Brainstem [1, 8]: -11% | Percent Displacement in [123I]p ZIENT (BPND), Diencephalon [1, 8]: -5% | Percent Displacement in [123I]p ZIENT (BPND), Hippocampus [1, 8]: -8% | Percent Displacement in [123I]p ZIENT (BPND), Temporal Cortex [1, 8]: -1% | displacement of [123I]p ZIENT in all regions studied, in words ([1]; IV at 8 h post-radiotracer, fluoxetine 1.5, 2.5, citalopram 5, methylphenidate 0.5, nisoxetine 1 mg/kg): no significant changes

COC(=O)C1C2CCC(CC1c1ccc(/C=C\I)cc1)N2 (stereo not drawn) [[^123I]p ZIENT, 2β-carbomethoxy-3β-(4′-((Z)-2-iodoethenyl)phenyl)nortropane]
BPND basal ganglia [2, 9]: 0.97 | BPND brainstem [2, 9]: 1.34 | BPND diencephalon [2, 9]: 1.48 | BPND hippocampus [2, 9]: 0.49 | BPND temporal cortex [2, 9]: 0.39 | BPND basal ganglia [2, 10]: 0.81 | BPND brainstem [2, 10]: 1.34 | BPND diencephalon [2, 10]: 1.04 | BPND hippocampus [2, 10]: 0.82 | BPND temporal cortex [2, 10]: 0.22 | BPND basal ganglia ([2]; second animal): 2.9 | BPND brainstem ([2]; second animal): 4.32 | BPND diencephalon ([2]; second animal): 3.83 | BPND hippocampus ([2]; second animal): 2.07 | BPND temporal cortex ([2]; second animal): 1.28 | Relative proportion of plasma radioactivity, Parent Compound ([3]; 1 min after injection, arterial plasma): 69% | Relative proportion of plasma radioactivity, Parent Compound [3, 11]: 69% | Relative proportion of plasma radioactivity, Polar Fraction (metabolite) [3, 11]: 5% | combined two polar metabolite fractions as percent of total plasma activity ([3]; 3 min post-injection): 31% | Relative proportion of plasma radioactivity, Parent Compound [3, 12]: 65% | Relative proportion of plasma radioactivity, Polar Fraction (metabolite) [3, 12]: 10% | Relative proportion of plasma radioactivity, Parent Compound [3, 13]: 43% | Relative proportion of plasma radioactivity, Polar Fraction (metabolite) [3, 13]: 41% | Relative proportion of plasma radioactivity, Parent Compound [3, 14]: 16% | Relative proportion of plasma radioactivity, Polar Fraction (metabolite) [3, 14]: 78% | Relative proportion of plasma radioactivity, Parent Compound [3, 15]: 10% | Relative proportion of plasma radioactivity, Polar Fraction (metabolite) [3, 15]: 87% | Relative proportion of plasma radioactivity, Parent Compound [3, 16]: 5% | Relative proportion of plasma radioactivity, Polar Fraction (metabolite) [3, 16]: 94% | Relative proportion of plasma radioactivity, Parent Compound [3, 17]: 4% | Relative proportion of plasma radioactivity, Polar Fraction (metabolite) [3, 17]: 95% | combined two polar metabolite fractions as percent of total plasma activity ([3]; 180 min post-injection): 96% | Relative proportion of plasma radioactivity, Parent Compound [3, 18]: 3% | Relative proportion of plasma radioactivity, Polar Fraction (metabolite) [3, 18]: 96% | time of peak level of radioactivity in arterial plasma ([3]; after bolus injection): 4 to 7 min | time of peak of the transient fraction ([3]; arterial plasma): 3 to 5 min | unmetabolized parent as proportion of plasma radioactivity ([3]; at the time of peak level of radioactivity in arterial plasma (4-7 min)): 69% | lipophilic radiolabeled metabolites entering the brain ([3]; baboon arterial plasma, HPLC): no detection; also recorded: detected no radiometabolites that are capable of entering the brain | transient fraction at its peak, proportion of plasma radioactivity ([3]; peak at 3-5 min): 26% | SERT binding affinity [4]: ~0.05 nM | protein bound in plasma ([5]; first of the two baboons): 93.1± 0.3% and 93% | protein bound in plasma ([5]; second of the two baboons): 89.8 ± 0.7% and 90% | time of peak whole brain uptake ([6]; bolus IV injection): 74 min | whole brain uptake, percent of injected dose ([6]; bolus IV injection, at peak (74 min)): 2.3% | time at which equilibrium was established ([6]; bolus to constant infusion at a ratio of 9.0 h): 4 to 8 h | change per hour at equilibrium ([6]; bolus to constant infusion, between 4-8 h): < 5% | specificity for binding to the 5-HT transporter compared to the dopamine transporter [7]: 100 fold
